# Results taken from patent publication US20140275183A1, “AGENT FOR REDUCING SIDE EFFECTS OF KINASE INHIBITOR” (Ajinomoto Co., Inc., priority 2011, published 2014).
# What was measured:
# [1] = system: CDAA diet-induced liver cancer model rats; test: CDAA (choline-deficient L-amino acid defined) diet-induced liver cancer model rats, combined intake of sorafenib and BCAA; assay type: in vivo, Fischer 344 rats
# Source text: Using CDAA (choline-deficient L-amino acid defined) diet-induced liver cancer model rats, the effects of the combined intake of sorafenib and branched-chain amino acids (BCAA) were investigated. The CDAA diet used a commercially available choline-deficient diet (#518753: Choline deficient and iron supplemented L-amino acid defined rat diet, manufactured by Dyets Inc.).
# Six-week old Fischer 344 rats were divided into a CDAA diet intake group, a sorafenib only intake group, and a BCAA combined intake group (N=15 for each group), and the test diet was provided freely. For the CDAA diet intake group, only the CDAA diet was supplied as the test diet. For the sorafenib only intake group, a CDAA diet mixed with an amount of sorafenib tosylate tablets (Nexavar (a registered trademark) tablets 200 mg, manufactured by Bayer Pharma AG) sufficient to provide an intake of sorafenib of 16 mg/kg/day (800 mg/50 kg/day) (hereafter referred to as the “CDAA/sorafenib diet”) was supplied. For the BCAA combined intake group, a diet prepared by mixing the CDAA/sorafenib diet supplied to the sorafenib only intake group with 2.5% by mass of a BCAA formulation (Livact (a registered trademark) granules, manufactured by Ajinomoto Co., Inc.) (hereafter referred to as the “CDAA/sorafenib/BCAA diet”) was supplied. The weight ratio between isoleucine, leucine and valine in the BCAA formulation was 1:2:1.2 (isoleucine:0.952 g, leucine: 1.904 g, and valine: 1.144 g).
# Each individual was autopsied either at the time of death or after 56 weeks from the start of the test (from supply of the test diet), and the effect of treatment continuation was investigated on the basis of the hepatic fibrosis inhibitory effect, the hepatocarcinogenesis rate and the survival rate.
# Further, the presence or absence of hepatic fibrosis was determined on the basis of the result of Azan staining of a liver tissue section, and the result of measuring the concentration of HYP (hydroxyproline) within the liver. The presence or absence of hepatocarcinogenesis was evaluated by immunostaining a tissue section of the liver with an antibody to the precancerous marker GST-P (glutathione S-transferase placental form), and inspecting the tissue section for the presence of staining.
# Huh7 cells = test: antitumor action enhancement effect, Huh7 cells implanted subcutaneously in nude mice; assay type: in vivo, BALB/c nude mice; conditions: sorafenib oral 5 mg/kg for 2 weeks then 30 mg/kg for 5 days, ± feed containing 3% BCAA; three weeks after start; FIG. 3
# Protocol: Huh7 cells were implanted subcutaneously in BALB/c nude mice in an amount of 1×10^7 cell/mouse.
# After one week, the mice were split into groups based on tumor diameter, and the groups were subjected to 2 weeks of 5 mg/kg sorafenib oral administration±food supply containing 3% BCAA (with the sorafenib administered 5 days/week).
# In the third week of administration, the sorafenib dose was increased from 5 mg/kg to 30 mg/kg, and oral administration was continued for 5 days. During this time, supply of the feed containing 3% BCAA was continued.
# Three weeks after the start of administration, the tumor diameter of each group was measured, and the average value+SE for the tumor volume was calculated. The tumor volume was calculated as tumor major axis/2×(minor axis)^2.
# [2] = sorafenib 16 mg/kg/day in CDAA diet, with or without 2.5% BCAA formulation
smiles,measurement,setting,value
"CNC(=O)c1cc(Oc2ccc(NC(=O)Nc3ccc(Cl)c(C(F)(F)F)c3)cc2)ccn1 [sorafenib, 4-[4-[[4-chloro-3-(trifluoromethyl)phenyl]carbamoylamino]phenoxy]-N-methylpyridine-2-carboxamide]","number of rats in which hepatic fibrosis or precancerous lesions were observed, compared with the CDAA diet intake group","[1]; Azan staining, liver HYP, GST-P immunostaining, autopsy at death or after 56 weeks",fewer
same,bleeding (side effect),[1]; [2],"a tendency for bleeding to occur in the gastrointestinal tract, including the anal region, was also observed"
same,loss of appetite (side effect),[1]; [2],a loss of appetite due to gastrostenosis was also noted
same,redness (cutaneous side effect),[1]; [2],"redness was noted not only on the four legs, but also on the trunk and the skin"
same,degree of shrinkage in the tumor volume compared with the control group,Huh7 cells,unchanged
